Measurements taken from the NIST ThermoML archive (doi:10.1021/je4009415).

Assay: xn = mol fraction of the nth substance listed
Details: Liquid, Vibrating tube method

CCOC(=O)CC [ethyl propanoate] + CCCCCCC
Details | mass density [kg/m3]
288.15 K, x1 = 0.0524 | 695.91
288.15 K, x1 = 0.0988 | 703.07
288.15 K, x1 = 0.1463 | 710.63
288.15 K, x1 = 0.1941 | 718.6
288.15 K, x1 = 0.2514 | 728.31
288.15 K, x1 = 0.3018 | 737.02
288.15 K, x1 = 0.3473 | 745.24
288.15 K, x1 = 0.4004 | 755.32
288.15 K, x1 = 0.4483 | 764.49
288.15 K, x1 = 0.5023 | 775.33
288.15 K, x1 = 0.5493 | 785.04
288.15 K, x1 = 0.6523 | 807.55
288.15 K, x1 = 0.7155 | 821.91
288.15 K, x1 = 0.7532 | 830.95
288.15 K, x1 = 0.7965 | 841.54
288.15 K, x1 = 0.8566 | 856.59
288.15 K, x1 = 0.9037 | 868.82
288.15 K, x1 = 0.9502 | 881.54
288.15 K, x1 = 1 | 895.58
298.15 K, x1 = 0.0502 | 687.02
298.15 K, x1 = 0.0966 | 693.85
298.15 K, x1 = 0.1618 | 704.16
298.15 K, x1 = 0.24 | 717.15
298.15 K, x1 = 0.3102 | 729.24
298.15 K, x1 = 0.401 | 745.76
298.15 K, x1 = 0.4502 | 755.12
298.15 K, x1 = 0.5047 | 765.87
298.15 K, x1 = 0.598 | 785.24
298.15 K, x1 = 0.6478 | 796.11
298.15 K, x1 = 0.6968 | 807.1
298.15 K, x1 = 0.7456 | 818.46
298.15 K, x1 = 0.7933 | 829.93
298.15 K, x1 = 0.8547 | 845.07
298.15 K, x1 = 0.9029 | 857.64
298.15 K, x1 = 0.952 | 870.77
298.15 K, x1 = 1 | 884.15
308.15 K, x1 = 0.0489 | 677.99
308.15 K, x1 = 0.0972 | 685.13
308.15 K, x1 = 0.1622 | 695.08
308.15 K, x1 = 0.2109 | 702.86
308.15 K, x1 = 0.2409 | 707.93
308.15 K, x1 = 0.3084 | 719.36
308.15 K, x1 = 0.352 | 727.08
308.15 K, x1 = 0.4029 | 736.28
308.15 K, x1 = 0.44 | 743.31
308.15 K, x1 = 0.5033 | 755.53
308.15 K, x1 = 0.5515 | 765.29
308.15 K, x1 = 0.6049 | 776.34
308.15 K, x1 = 0.6546 | 787.12
308.15 K, x1 = 0.6957 | 796.27
308.15 K, x1 = 0.7472 | 808.1
308.15 K, x1 = 0.8001 | 820.72
308.15 K, x1 = 0.8549 | 834.09
308.15 K, x1 = 0.8932 | 843.97
308.15 K, x1 = 0.949 | 858.62
308.15 K, x1 = 1 | 872.62
318.15 K, x1 = 0.0535 | 669.87
318.15 K, x1 = 0.0979 | 676.31
318.15 K, x1 = 0.1459 | 683.47
318.15 K, x1 = 0.2045 | 692.71
318.15 K, x1 = 0.262 | 702.04
318.15 K, x1 = 0.3009 | 708.59
318.15 K, x1 = 0.3494 | 717.01
318.15 K, x1 = 0.4057 | 727.08
318.15 K, x1 = 0.4487 | 735.05
318.15 K, x1 = 0.5052 | 745.9
318.15 K, x1 = 0.552 | 755.16
318.15 K, x1 = 0.5969 | 764.38
318.15 K, x1 = 0.6529 | 776.27
318.15 K, x1 = 0.7022 | 787.15
318.15 K, x1 = 0.7467 | 797.21
318.15 K, x1 = 0.7935 | 808.2
318.15 K, x1 = 0.8452 | 820.6
318.15 K, x1 = 0.8929 | 832.6
318.15 K, x1 = 0.9484 | 847.05
318.15 K, x1 = 1 | 861.08
328.15 K, x1 = 0.0528 | 660.86
328.15 K, x1 = 0.1065 | 668.58
328.15 K, x1 = 0.1619 | 676.84
328.15 K, x1 = 0.2123 | 684.53
328.15 K, x1 = 0.2511 | 690.83
328.15 K, x1 = 0.3081 | 700.22
328.15 K, x1 = 0.3519 | 707.73
328.15 K, x1 = 0.4084 | 717.71
328.15 K, x1 = 0.4478 | 724.83
328.15 K, x1 = 0.5074 | 736.13
328.15 K, x1 = 0.5522 | 744.86
328.15 K, x1 = 0.6033 | 755.17
328.15 K, x1 = 0.6454 | 764.1
328.15 K, x1 = 0.7023 | 776.34
328.15 K, x1 = 0.7443 | 785.77
328.15 K, x1 = 0.7989 | 798.4
328.15 K, x1 = 0.8593 | 812.97
328.15 K, x1 = 0.8983 | 822.61
328.15 K, x1 = 0.9494 | 835.87
328.15 K, x1 = 1 | 849.41

CCOC(=O)CC [ethyl propanoate] + CCCCCCCCC
Details | mass density [kg/m3]
288.15 K, x1 = 0.0545 | 727.07
288.15 K, x1 = 0.1159 | 733.36
288.15 K, x1 = 0.1434 | 736.52
288.15 K, x1 = 0.2218 | 745.49
288.15 K, x1 = 0.2412 | 747.88
288.15 K, x1 = 0.3158 | 757.46
288.15 K, x1 = 0.3579 | 763.17
288.15 K, x1 = 0.4121 | 770.89
288.15 K, x1 = 0.462 | 778.51
288.15 K, x1 = 0.5039 | 785.25
288.15 K, x1 = 0.5537 | 793.58
288.15 K, x1 = 0.6035 | 802.47
288.15 K, x1 = 0.6328 | 807.91
288.15 K, x1 = 0.6935 | 819.81
288.15 K, x1 = 0.7463 | 830.79
288.15 K, x1 = 0.7907 | 840.69
288.15 K, x1 = 0.895 | 866.09
288.15 K, x1 = 0.9488 | 880.62
288.15 K, x1 = 1 | 895.58
298.15 K, x1 = 0.0538 | 718.94
298.15 K, x1 = 0.0883 | 722.45
298.15 K, x1 = 0.142 | 728.05
298.15 K, x1 = 0.2152 | 736.31
298.15 K, x1 = 0.3007 | 746.83
298.15 K, x1 = 0.3555 | 754.11
298.15 K, x1 = 0.4078 | 761.4
298.15 K, x1 = 0.4592 | 769.02
298.15 K, x1 = 0.4988 | 775.19
298.15 K, x1 = 0.5511 | 783.72
298.15 K, x1 = 0.5917 | 790.84
298.15 K, x1 = 0.6562 | 802.56
298.15 K, x1 = 0.6962 | 810.32
298.15 K, x1 = 0.741 | 819.48
298.15 K, x1 = 0.7883 | 829.57
298.15 K, x1 = 0.8559 | 845.47
298.15 K, x1 = 0.9034 | 857.27
298.15 K, x1 = 0.9521 | 870.29
298.15 K, x1 = 1 | 884.15
308.15 K, x1 = 0.0558 | 711.17
308.15 K, x1 = 0.089 | 714.43
308.15 K, x1 = 0.1555 | 721.34
308.15 K, x1 = 0.2171 | 728.16
308.15 K, x1 = 0.2586 | 733.03
308.15 K, x1 = 0.3081 | 739.12
308.15 K, x1 = 0.3829 | 748.94
308.15 K, x1 = 0.4013 | 751.5
308.15 K, x1 = 0.4533 | 759.02
308.15 K, x1 = 0.5068 | 767.11
308.15 K, x1 = 0.5509 | 774.2
308.15 K, x1 = 0.6035 | 783.03
308.15 K, x1 = 0.6525 | 791.81
308.15 K, x1 = 0.6998 | 800.82
308.15 K, x1 = 0.7473 | 810.39
308.15 K, x1 = 0.794 | 820.41
308.15 K, x1 = 0.8533 | 833.93
308.15 K, x1 = 0.9006 | 845.51
308.15 K, x1 = 0.9506 | 858.66
308.15 K, x1 = 1 | 872.62
318.15 K, x1 = 0.0516 | 702.64
318.15 K, x1 = 0.0909 | 706.6
318.15 K, x1 = 0.1617 | 713.7
318.15 K, x1 = 0.219 | 719.88
318.15 K, x1 = 0.2413 | 722.49
318.15 K, x1 = 0.2923 | 728.44
318.15 K, x1 = 0.3518 | 735.96
318.15 K, x1 = 0.4062 | 743.15
318.15 K, x1 = 0.4541 | 749.92
318.15 K, x1 = 0.5056 | 757.57
318.15 K, x1 = 0.556 | 765.57
318.15 K, x1 = 0.6001 | 772.83
318.15 K, x1 = 0.6514 | 781.78
318.15 K, x1 = 0.6939 | 789.72
318.15 K, x1 = 0.7552 | 801.69
318.15 K, x1 = 0.7988 | 810.87
318.15 K, x1 = 0.8559 | 823.94
318.15 K, x1 = 0.9062 | 835.91
318.15 K, x1 = 0.9524 | 847.95
318.15 K, x1 = 1 | 861.08
328.15 K, x1 = 0.0514 | 694.83
328.15 K, x1 = 0.0965 | 699.04
328.15 K, x1 = 0.1572 | 705.05
328.15 K, x1 = 0.2061 | 710.14
328.15 K, x1 = 0.2627 | 716.42
328.15 K, x1 = 0.3163 | 722.76
328.15 K, x1 = 0.3619 | 728.36
328.15 K, x1 = 0.4059 | 734.14
328.15 K, x1 = 0.4602 | 741.6
328.15 K, x1 = 0.5053 | 748.09
328.15 K, x1 = 0.5543 | 755.65
328.15 K, x1 = 0.6024 | 763.42
328.15 K, x1 = 0.6525 | 772.01
328.15 K, x1 = 0.6996 | 780.61
328.15 K, x1 = 0.7535 | 791.02
328.15 K, x1 = 0.8019 | 801
328.15 K, x1 = 0.8606 | 813.96
328.15 K, x1 = 0.8933 | 821.83
328.15 K, x1 = 0.9504 | 836
328.15 K, x1 = 1 | 849.41
